Among the test systems are A498 renal; A549 NSCLC; DU-145 prostate; HCC-2998 colon; HCT-15 colon; KM12 colon; M14 melanoma; SK-MEL-2 melanoma; SNB-75 CNS; U251 CNS.
What all share (assay): NCI anticancer screen, dose series, 48 h

We go through seven compounds from PubChem BioAssay (NCI).

Where “and” joins values, the source holds several entries; their conditions need not be identical. Equal values may be shown once.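 Where inhibition never reached the appropriate level, the endpoint shown equals the highest concentration tested. Otherwise, values were interpolated linearly from a five-concentration, 48-hour dose response in 96-well plates. The concentration for 50% growth inhibition is given as GI50. TGI is the concentration that stops growth completely.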

For the compound `COc1ccc(N(C)c2nc(Cl)nc3cnn(C)c23)cc1`, the GI50 with A498 renal is below 0.01 µM; in the test with A549 NSCLC it was below 0.0117 µM; in the test on DU-145 prostate, 0.0171 µM; with HCC-2998 colon, 0.0285 µM; in the test on HCT-15 colon it was below 0.01 µM; with KM12 colon it was below 0.01 µM. Besides, the GI50 with M14 melanoma, in the test on SK-MEL-2 melanoma, with SNB-75 CNS and in the test with U251 CNS was below 0.01 µM in each case. Besides, the TGI with A498 renal was 0.178 µM; in the test on A549 NSCLC, above 100 µM; in the test with DU-145 prostate it was above 100 µM; in the test with HCC-2998 colon it was above 59.7 µM; in the test with HCT-15 colon, above 100 µM; in the test on KM12 colon, above 100 µM. The TGI with M14 melanoma, in the test with SK-MEL-2 melanoma, in the test on SNB-75 CNS and with U251 CNS was above 100 µM throughout.
In the case of `COc1cc(/C=C/C(=O)c2c(C)nc3ccccc3c2C)ccc1OCCCN1CCN(C(=O)c2ccco2)CC1`, the GI50 in the test with A498 renal was 4.14 µM; in the test with A549 NSCLC, 11.3 µM; with DU-145 prostate, 9.78 µM; in the test with HCC-2998 colon it was 10.4 µM; in the test with HCT-15 colon, 5.74 µM; in the test on KM12 colon, 11.4 µM. Further, the GI50 with M14 melanoma was 11.6 µM; in the test on SK-MEL-2 melanoma, 16.1 µM; in the test with SNB-75 CNS, 12.8 µM; in the test with U251 CNS, 7.95 µM. Further, the TGI with A498 renal was 17.7 µM; in the test with A549 NSCLC, 27.3 µM; in the test on DU-145 prostate it was 21.4 µM; in the test with HCC-2998 colon, 22.1 µM; with HCT-15 colon, 30.9 µM; with KM12 colon, 24.3 µM. Further, the TGI worked out at 23.8 µM in the test on M14 melanoma, 37.7 µM in the test with SK-MEL-2 melanoma, 27.6 µM in the test on SNB-75 CNS and 20.6 µM with U251 CNS.
As for `C/C(=N/Nc1nc(C)cc(=O)[nH]1)C(=O)O`, the TGI in the test on A498 renal, in the test on A549 NSCLC, in the test with DU-145 prostate, in the test on HCC-2998 colon, with HCT-15 colon and with KM12 colon was above 100 µM in each case. Also, the TGI with M14 melanoma, in the test on SK-MEL-2 melanoma, in the test on SNB-75 CNS and in the test with U251 CNS was above 100 µM throughout.
Turning to `Cc1ccc(OCC2OC(n3cnc4c(Br)nc(Br)nc43)CC2Oc2ccc(C)cc2)cc1` (stereo not drawn), the GI50 is 22.9 µM in the test on A498 renal; 13.1 µM with DU-145 prostate; 3.07 µM in the test on HCC-2998 colon; 1.45 µM in the test with HCT-15 colon; 2.46 µM in the test with KM12 colon; 14.1 µM in the test with SK-MEL-2 melanoma. For the same compound, the GI50 in the test on SNB-75 CNS was 8.32 µM; in the test on U251 CNS, 1.61 µM. Besides, the TGI in the test on A498 renal was 20.6 µM and 41 µM; in the test with A549 NSCLC it was 30 µM and > 41.9 µM; with DU-145 prostate it was 23.8 µM and 5.88 µM; in the test with HCC-2998 colon, 11.8 µM and 7.24 µM; with HCT-15 colon it was 3.24 µM and 4.73 µM; with KM12 colon it was 8.76 µM and 9.56 µM. Besides, the TGI was 10.6 µM and 7.47 µM with M14 melanoma; 28.3 µM and 8.15 µM in the test with SK-MEL-2 melanoma; 18.3 µM and 9.29 µM in the test with SNB-75 CNS; 3.99 µM and 4.82 µM with U251 CNS.
Consider `CN(C)CCOC(=O)Nc1nc2ccc(Sc3ccccc3)cc2[nH]1`, for which the GI50 is 2.62 µM with A498 renal; 4.97 µM in the test on A549 NSCLC; 4.09 µM with DU-145 prostate; 3.31 µM in the test with HCC-2998 colon; 1.96 µM in the test on HCT-15 colon; 3.51 µM with KM12 colon. Besides, the GI50 in the test on M14 melanoma is 2.28 µM; in the test with SK-MEL-2 melanoma, 5.55 µM; in the test with SNB-75 CNS it was 1.98 µM; in the test with U251 CNS, 3.04 µM. The TGI stood at 10.6 µM in the test on A498 renal; 18.3 µM with A549 NSCLC; 18.8 µM in the test with DU-145 prostate; 14.1 µM in the test with HCC-2998 colon; 16.2 µM in the test on HCT-15 colon; 19.7 µM with KM12 colon. In addition, the TGI in the test with M14 melanoma is 9.29 µM; in the test with SK-MEL-2 melanoma it was 22.2 µM; in the test with SNB-75 CNS it was 7.66 µM; in the test with U251 CNS, 12.1 µM.
Turning to `C=C1C(=O)O[C@H]2[C@H]1CC/C(COC(=O)NCCCCCCCCNC(=O)OC/C1=C/CC[C@@]3(C)O[C@H]3[C@H]3OC(=O)C(=C)[C@@H]3CC1)=C\CC[C@@]1(C)O[C@@H]21`, the GI50 in the test on A498 renal is 1.69 µM; with A549 NSCLC, 1.7 µM; with DU-145 prostate, 1.1 µM; in the test on HCC-2998 colon, 1.2 µM; in the test on HCT-15 colon, 0.346 µM; in the test with KM12 colon it was 1.29 µM. For the same compound, the GI50 was 0.272 µM with M14 melanoma, 0.601 µM in the test with SK-MEL-2 melanoma, 1.25 µM in the test with SNB-75 CNS and 0.578 µM with U251 CNS. The TGI amounted to 3.14 µM with A498 renal; 3.51 µM in the test with A549 NSCLC; 2.3 µM with DU-145 prostate; 2.52 µM in the test with HCC-2998 colon; 1.41 µM with HCT-15 colon; 3.11 µM with KM12 colon. Further, the TGI was 0.8 µM in the test on M14 melanoma, 2.8 µM in the test on SK-MEL-2 melanoma, 3.5 µM in the test on SNB-75 CNS and 2 µM with U251 CNS.
Consider `FC(F)(F)c1cc(Nc2ccc3cc(OCCCN4CCOCC4)ccc3n2)ccc1Cl`, for which the GI50 was 1.47 µM in the test with A498 renal; 1.93 µM with A549 NSCLC; 3.17 µM with DU-145 prostate; 1.74 µM with HCC-2998 colon; 1.28 µM with HCT-15 colon; 1.92 µM in the test on KM12 colon. The GI50 is 1.71 µM in the test with M14 melanoma, 1.99 µM in the test with SK-MEL-2 melanoma, 1.61 µM in the test on SNB-75 CNS and 1.27 µM in the test with U251 CNS. The TGI worked out at 6.27 µM with A498 renal; 4.3 µM in the test with A549 NSCLC; 13.3 µM with DU-145 prostate; 3.38 µM in the test on HCC-2998 colon; 3.08 µM in the test with HCT-15 colon; 4.37 µM in the test on KM12 colon. Moreover, the TGI with M14 melanoma was 3.66 µM; in the test with SK-MEL-2 melanoma, 3.88 µM; in the test on SNB-75 CNS, 3.92 µM; in the test on U251 CNS, 2.75 µM.
